Laboratory results: ChEMBL document CHEMBL1133288, “Synthesis and antiviral evaluation of nucleic acid-based (NAB) libraries” (Bioorg Med Chem Lett, 2000)

Tested on: Vero
Experiment: Compound was evaluated for inhibition of HSV-1 induced plaques in vero cells (African green monkey kidney cells)
Format: functional, cell-based
Conditions: Chlorocebus sabaeus

Nc1nc2c(ncn2COCCO)c(=O)[nH]1 [ACYCLOVIR]
EC50: 6 µM
